Assay results taken from patent US20120015887A1, “SYNTHETIC PEPTIDE AND USES THEREOF” (priority 2009, published 2012).
Bridge positions count the residues as written; N and C are the ends. Side chains are listed from the residue outwards. Peptide text beside a SMILES is read from it. I, II: the chains in the order shown.

Legend:
[1] = in vivo
[2] = Body weight, spleen weight and tolerability in Kunming mice with transplanted H22 tumor; conditions: for Weight of spleen / Average weight (X ± S, g) End / Average weight (X ± S, g) Start: 2 mg/kg, ip × 5; for Weight of spleen: end of test; for Average weight (X ± S, g) End: End of test; for Average weight (X ± S, g) Start: Start of test
[3] = The 3rd day after administration, 2 mg/kg ip
[4] = The 5th day after administration, 2 mg/kg ip
[5] = The 7th day after administration, 2 mg/kg ip
[6] = The 9th day after administration, 2 mg/kg ip
[7] = The 11th day after administration, 2 mg/kg ip

| SMILES | Abnormity or side effect in test chickens [1] | Body weight growth compared with the blank control group ([2]; 2 mg/kg ip, test duration) | Death / acute toxicity in tumor-bearing mice ([2]; 2 mg/kg ip, test duration) | Side effect in tumor-bearing mice ([2]; 2 mg/kg ip, test duration) | Weight of spleen [2] [g] | Average weight (X ± S, g) End [2] [g] | Average weight (X ± S, g) Start [2] [g] | Body weight/g [2, 3] [g] | Body weight/g [2, 4] [g] | Body weight/g [2, 5] [g] | Body weight/g [2, 6] [g] | Body weight/g [2, 7] [g] | Body weight/g ([2]; The day without administration) [g] |
| --- | --- | --- | --- | --- | --- | --- | --- | --- | --- | --- | --- | --- | --- |
| C[C@@H](O)[C@H](N)C(=O)N[C@@H](CCCCN)C(=O)N1CCC[C@H]1C(=O)N[C@@H](CCCNC(=N)N)C(=O)NCCCC[C@H](NC(=O)[C@H](CCCNC(=N)N)NC(=O)[C@@H]1CCCN1C(=O)[C@H](CCCCN)NC(=O)[C@@H](N)[C@@H](C)O)C(=O)NCCCC[C@H](NC(=O)[C@H](CCCCNC(=O)[C@H](CCCNC(=N)N)NC(=O)[C@@H]1CCCN1C(=O)[C@H](CCCCN)NC(=O)[C@@H](N)[C@@H](C)O)NC(=O)[C@H](CCCNC(=N)N)NC(=O)[C@@H]1CCCN1C(=O)[C@H](CCCCN)NC(=O)[C@@H](N)[C@@H](C)O)C(=O)O [(TKPR)4>K2>K, reference compound] (I: H-TKPRK([Arg-Pro-Lys-Thr])K-OH / II: H-TKPRK([Arg-Pro-Lys-Thr]); amide I:6-II:C) | no abnormity or side effect | – | – | – | – | – | – | – | – | – | – | – | – |
| C[C@@H](O)[C@H](N)C(=O)N[C@@H](CCCCN)C(=O)N1CCC[C@H]1C(=O)N[C@@H](CCCNC(=N)N)C(=O)NCCCC[C@H](NC(=O)[C@H](CCCNC(=N)N)NC(=O)[C@@H]1CCCN1C(=O)[C@H](CCCCN)NC(=O)[C@@H](N)[C@@H](C)O)C(=O)NCCCC[C@H](NC(=O)[C@H](CCCCNC(=O)[C@H](CCCNC(=N)N)NC(=O)[C@@H]1CCCN1C(=O)[C@H](CCCCN)NC(=O)[C@@H](N)[C@@H](C)O)NC(=O)[C@H](CCCNC(=N)N)NC(=O)[C@@H]1CCCN1C(=O)[C@H](CCCCN)NC(=O)[C@@H](N)[C@@H](C)O)C(=O)NCC(=O)O [(TKPR)4>K2>K-G] (I: H-TKPRK([Arg-Pro-Lys-Thr])KG-OH / II: H-TKPRK([Arg-Pro-Lys-Thr]); amide I:6-II:C) | no abnormity or side effect | the same as that of the blank control group | no acute toxicity reactions occurred | no obvious side effect | 0.31 ± 0.08 | 30.6 ± 3.2 | 14.8 ± 0.8 | 19.6 ± 0.8 | 23.3 ± 1.0 | 26.2 ± 1.9 | 28.5 ± 2.5 | 30.6 ± 3.2 | 14.8 ± 0.8 |
| C[C@@H](O)[C@H](N)C(=O)N[C@@H](CCCCN)C(=O)N1CCC[C@H]1C(=O)N[C@@H](CCCNC(=N)N)C(=O)NCCCC[C@H](NC(=O)[C@H](CCCNC(=N)N)NC(=O)[C@@H]1CCCN1C(=O)[C@H](CCCCN)NC(=O)[C@@H](N)[C@@H](C)O)C(=O)NCCCC[C@H](NC(=O)[C@H](CCCCNC(=O)[C@H](CCCNC(=N)N)NC(=O)[C@@H]1CCCN1C(=O)[C@H](CCCCN)NC(=O)[C@@H](N)[C@@H](C)O)NC(=O)[C@H](CCCNC(=N)N)NC(=O)[C@@H]1CCCN1C(=O)[C@H](CCCCN)NC(=O)[C@@H](N)[C@@H](C)O)C(=O)N[C@H](C(=O)N[C@@H](CCCCN)C(=O)N1CCC[C@H]1C(=O)N[C@@H](CCCNC(=N)N)C(=O)O)[C@@H](C)O [(TKPR)4>K2>K-TKPR] (I: H-TKPRK([Arg-Pro-Lys-Thr])KTKPR-OH / II: H-TKPRK([Arg-Pro-Lys-Thr]); amide I:6-II:C) | no abnormity or side effect | – | – | – | – | – | – | – | – | – | – | – | – |
| C[C@@H](O)[C@H](N)C(=O)N[C@@H](CCCCN)C(=O)N1CCC[C@H]1C(=O)N[C@@H](CCCNC(=N)N)C(=O)O [TKPR, Thr-Lys-Pro-Arg, reference compound] (H-TKPR-OH) | – | – | – | – | 0.32 ± 0.09 | 29.6 ± 1.7 | 15.2 ± 0.7 | 18.9 ± 0.7 | 21.5 ± 1.1 | 24.4 ± 1.3 | 27.0 ± 1.5 | 29.6 ± 1.7 | 15.2 ± 0.7 |
